Biological target: E1CTD (Monkeypox virus Zaire-96-I-16, UniProt Q8V4Y7)

Compound: C[S+](CC[C@H](N)C(=O)O)C[C@H]1O[C@@H](n2cnc3c(N)ncnc32)[C@H](O)[C@@H]1O (stereo partly shown) [SAM]
- no detectable binding ability: the E1CTD also shows no detectable binding ability to SAM
